The target of the assay is T1, mOct2 (Mus musculus, UniProt O70577).
T1 construct: expressed in transfected cells; host or cells: HEK293
T1 sequence (O70577 1-553): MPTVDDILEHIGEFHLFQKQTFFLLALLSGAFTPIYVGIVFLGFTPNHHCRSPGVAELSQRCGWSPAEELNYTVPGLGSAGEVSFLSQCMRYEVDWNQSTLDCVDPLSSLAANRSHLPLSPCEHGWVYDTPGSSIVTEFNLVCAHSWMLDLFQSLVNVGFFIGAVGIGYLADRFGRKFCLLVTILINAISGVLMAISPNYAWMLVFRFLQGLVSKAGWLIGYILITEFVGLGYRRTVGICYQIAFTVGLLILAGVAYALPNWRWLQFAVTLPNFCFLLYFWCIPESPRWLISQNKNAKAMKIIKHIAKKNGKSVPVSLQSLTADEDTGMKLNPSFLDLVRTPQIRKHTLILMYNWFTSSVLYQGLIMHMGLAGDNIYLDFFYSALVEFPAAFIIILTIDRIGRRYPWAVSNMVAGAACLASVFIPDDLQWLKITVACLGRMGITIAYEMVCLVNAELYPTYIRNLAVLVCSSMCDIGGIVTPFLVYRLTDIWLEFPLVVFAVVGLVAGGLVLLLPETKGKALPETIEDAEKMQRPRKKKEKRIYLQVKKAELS
The assay is described as follows: Two-point inhibition of mOct2-mediated MPP uptake in transfected HEK293 cells. In kind it is in vitro ADME. Conditions: 1 and 10 μM; MPP 10 μM, 1 min. As to the method: Well-characterized mOct1-, mOct2-, mOat1-, mOat2-, mOat3-, mMate1-, hOAT1-, hOAT3-, hOAT4-, hMRP2-, mMdr1a- and mMdr1b-transfected HEK293 cells and the respective vector-transfected control HEK293 cells were used.[42],[51],[52] All HEK293 cells (transporter-transfected and vector-transfected) were cultured in DMEM (Sigma, high glucose, 10% FBS, 1% penicillin (10,000 Units/mL)/streptomycin (10 mg/mL)) at 37°C under 5% CO2 in humidified atmosphere. The cells were routinely checked for the absence of mycoplasma infection. For the preparation of HEK293 cell monolayers, 24-well plates were pretreated with a poly-D-lysine hydrobromide solution (0.1 mg/mL). […]
For the uptake assay, the growth medium was aspirated, and each well was rinsed three times with 0.5 mL of incubation buffer (HBSS supplemented with 20 mM HEPES, pH 7.4) and incubated for 20 min at 37 °C. […] Cells were solubilized with 0.6 mL of 1N NaOH overnight and transferred into scintillation vials. ^3H and ^14C contents were measured after the addition of 2.5 mL of scintillator in a liquid scintillation counter.
The cellular protein amount was determined in parallel for each cell line (vector- and transporter-transfected) from six wells in a different 24-well reference plate using the Bradford method. […]
The inhibitory effect (I(%)) was calculated according to the formula: [drawing 5] […]

Structures are written as SMILES.

We go through two compounds from PMC11249637, “Interaction of the Atypical Tetracyclines Chelocardin and Amidochelocardin with Renal Drug Transporters” (ACS Pharmacology & Translational Science, 2024).

On to `Cc1ccc2c(C)c3c(c(O)c2c1O)C(=O)[C@@]1(O)C(=O)C(C(N)=O)=C(O)[C@@H](N)[C@H]1C3` [CDCHD, amidochelocardin], for which the “inhibitory effect on mOct2 (in words)” value is “No inhibitory effect”.

Turning to `CC(=O)C1=C(O)[C@@H](N)[C@H]2Cc3c(c(O)c4c(O)c(C)ccc4c3C)C(=O)[C@@]2(O)C1=O` [CHD, chelocardin], the “inhibitory effect on mOct2 (in words)” value is given as “No inhibitory effect”.
